{"source": "paper PMC9758846", "about": "“Dinuclear and mononuclear metal(II) polypyridyl complexes against drug-sensitive and drug-resistant Plasmodium falciparum and their mode of action” (Malaria Journal, 2022)", "key": {"[1]": {"test": "Solution stability by molar conductivity and visible absorptivity", "format": "physicochemical", "settings": "24, 48 and 72 h; room temperature", "method": "Series of 10 mM stock solutions were prepared by dissolving the compounds in their respective solvents: phen and 4,4′-bipy in 95% ethanol; Cu(NO3)2·3H2O, Zn(NO3)2·6H2O, (1) and (2) in double distilled water; (3) and (4) in DMSO. All the stock solutions were further diluted with double distilled water to obtain 10 mL of 30 µM, 1 mM and 5 mM for their respective studies, viz. 30 µM for ultraviolet spectral studies, 1 mM for conductivity measurement and 5 mM for visible spectral studies. For the water-DMSO solutions of both complexes (3) and (4), the 30 µM, 1 mM and 5 mM solutions have […], 10% DMSO and 50% DMSO respectively. The absorbance at λmax and conductance were of the aqueous solutions were measured at 0, 24, 48 and 72 h. The molar absorptivity and molar conductivity of the metal(II) complex solutions and their precursors were then calculated."}, "Pf3D7 [2]": {"test_system": "Pf3D7", "test": "Nuclear morphology study by Hoechst staining", "format": "cell-based, Plasmodium falciparum", "settings": "Pf3D7-infected RBC; 72 h; 0.2-25 µM", "method": "Detections of haemolytic and apoptotic morphological features were examined on Giemsa-stained thin blood smear. The parasite was then visualised with oil immersion (100 × magnification) using upright brightfield microscope. Another thin blood smear was prepared, fixed with methanol, stained in 10 µg/mL of Hoechst 33,258 stain, and kept in the dark for 30 min at room temperature. A cover slip was applied, and the nuclear morphological examination was then visualized with at 100 × magnification with oil by fluorescence microscope using DAPI filter.\nThe morphological features of apoptosis of P. falciparum can be indicated by chromosome condensation and fragmentation of the P. falciparum nuclei in the non-nuclear RBC cells. The condensed chromosomes would be stained bright blue. The pRBC cells were treated with (1) and (3) respectively for 72 h, and the resultant pRBC were visualized and photographed at 100 × magnification with oil immersion. Typical images were enlarged to look at single cells and are depicted in Fig. 9 for Pf3D7 and Fig. 10 for Pf5202. […] The nuclei of P. falciparum trophozoites in pRBC were observed under brightfield microscope as dots, and they were stained brighter blue which increased in fluorescence intensity with increasing concentration of copper(II) complexes of (1) and (3) from 0.2, 1, 5 to 25 µM compared to the untreated pRBC."}, "Pf3D7 [3]": {"test_system": "Pf3D7", "test": "JC-1 mitochondrial membrane potential study", "format": "cell-based, Plasmodium falciparum", "settings": "JC-1 red/green fluorescence ratio", "method": "(§1) Mitochondrial membrane potential was investigated using a BD™ MitoScreen Flow Cytometry Mitochondrial Membrane Potential Detection JC-1 kit. In brief, parasitized red blood cells were treated with test compounds at desired concentrations for 12 and 48 h at 37 °C. After incubation, packed cells were stained as per manufacturer’s instructions. Dissipation in Δψm was measured by calculating the ratio between the red and green fluorescence."}, "Pf5202": {"test_system": "Pf5202", "test": "JC-1 mitochondrial membrane potential study", "format": "cell-based, Plasmodium falciparum", "settings": "JC-1 red/green fluorescence ratio", "method": "as §1"}}}
{"molecule": "O.O=[N+]([O-])[O-].O=[N+]([O-])[O-].[Cu+2].c1cnc2c(c1)ccc1cccnc12.c1cnc2c(c1)ccc1cccnc12", "note": "[Complex 1, [Cu(phen)2](NO3)2·H2O]", "values": [{"measurement": "Stability of aqueous solution (molar conductivity; for (1) also visible molar absorptivity)", "setting": "[1]", "result": "remains practically unchanged"}, {"measurement": "Type of cell death by nuclear morphology (Hoechst)", "setting": "Pf3D7 [2]", "result": "underwent apoptosis"}, {"measurement": "Mitochondrial membrane potential (Δψm)", "setting": "Pf3D7 [3]; 12 h, 1 µM", "result": "17.2 ± 12.8"}, {"measurement": "Mitochondrial membrane potential (Δψm)", "setting": "Pf3D7 [3]; 12 h, 5 µM", "result": "29.7 ± 12.1"}, {"measurement": "Mitochondrial membrane potential (Δψm)", "setting": "Pf3D7 [3]; 12 h, 25 µM", "result": "1.9 ± 1.1"}, {"measurement": "Mitochondrial membrane potential (Δψm)", "setting": "Pf3D7 [3]; 48 h, 1 µM", "result": "41.1 ± 5.1"}, {"measurement": "Mitochondrial membrane potential (Δψm)", "setting": "Pf3D7 [3]; 48 h, 5 µM", "result": "43.6 ± 15.0"}, {"measurement": "Mitochondrial membrane potential (Δψm)", "setting": "Pf3D7 [3]; 48 h, 25 µM", "result": "0.5 ± 0.3"}, {"measurement": "Mitochondrial membrane potential (Δψm)", "setting": "Pf5202; 12 h, 1 µM", "result": "18.9 ± 2.8"}, {"measurement": "Mitochondrial membrane potential (Δψm)", "setting": "Pf5202; 12 h, 5 µM", "result": "17.5 ± 3.5"}, {"measurement": "Mitochondrial membrane potential (Δψm)", "setting": "Pf5202; 12 h, 25 µM", "result": "1.1 ± 0.6"}, {"measurement": "Mitochondrial membrane potential (Δψm)", "setting": "Pf5202; 48 h, 1 µM", "result": "10.4 ± 3.1"}, {"measurement": "Mitochondrial membrane potential (Δψm)", "setting": "Pf5202; 48 h, 5 µM", "result": "6.0 ± 1.8"}, {"measurement": "Mitochondrial membrane potential (Δψm)", "setting": "Pf5202; 48 h, 25 µM", "result": "1.2 ± 0.1"}]}
{"molecule": "[Cu(phen)(NO3)(H2O)-4,4′-bipy-Cu(phen)(NO3)(H2O)](NO3)2 [Complex 3]", "values": [{"measurement": "Type of cell death by nuclear morphology (Hoechst)", "setting": "Pf3D7 [2]", "result": "underwent apoptosis"}, {"measurement": "Mitochondrial membrane potential (Δψm)", "setting": "Pf3D7 [3]; 12 h, 1 µM", "result": "24.2 ± 1.6"}, {"measurement": "Mitochondrial membrane potential (Δψm)", "setting": "Pf3D7 [3]; 12 h, 5 µM", "result": "49.3 ± 23.8"}, {"measurement": "Mitochondrial membrane potential (Δψm)", "setting": "Pf3D7 [3]; 12 h, 25 µM", "result": "0.4 ± 0.2"}, {"measurement": "Mitochondrial membrane potential (Δψm)", "setting": "Pf3D7 [3]; 48 h, 1 µM", "result": "45.0 ± 26.4"}, {"measurement": "Mitochondrial membrane potential (Δψm)", "setting": "Pf3D7 [3]; 48 h, 5 µM", "result": "4.7 ± 2.6"}, {"measurement": "Mitochondrial membrane potential (Δψm)", "setting": "Pf3D7 [3]; 48 h, 25 µM", "result": "0.1 ± 0.04"}, {"measurement": "Mitochondrial membrane potential (Δψm)", "setting": "Pf5202; 12 h, 1 µM", "result": "17.5 ± 2.2"}, {"measurement": "Mitochondrial membrane potential (Δψm)", "setting": "Pf5202; 12 h, 5 µM", "result": "16.6 ± 4.6"}, {"measurement": "Mitochondrial membrane potential (Δψm)", "setting": "Pf5202; 12 h, 25 µM", "result": "0.5 ± 0.1"}, {"measurement": "Mitochondrial membrane potential (Δψm)", "setting": "Pf5202; 48 h, 1 µM", "result": "19.2 ± 8.4"}, {"measurement": "Mitochondrial membrane potential (Δψm)", "setting": "Pf5202; 48 h, 5 µM", "result": "0.6 ± 0.1"}, {"measurement": "Mitochondrial membrane potential (Δψm)", "setting": "Pf5202; 48 h, 25 µM", "result": "0.1 ± 0.01"}]}
